Data published in PubChem BioAssay (NCI).
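Values below derive from 48-hour exposures of cells grown in 96-well plates, with endpoints linearly interpolated between the two concentrations bracketing the appropriate inhibition level. TGI: total growth inhibition.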

Legend:
Assay in all cases: NCI tumour cell line growth inhibition, 48 h
A498 renal = system: A498 renal
BT-549 breast = system: BT-549 breast
SK-MEL-2 melanoma = system: SK-MEL-2 melanoma
SN12C renal = system: SN12C renal
SNB-19 CNS = system: SNB-19 CNS
DLD-1 colon = system: DLD-1 colon
DMS 273 small cell lung = system: DMS 273 small cell lung
KM20L2 colon = system: KM20L2 colon
LXFL 529 NSCLC = system: LXFL 529 NSCLC
M19-MEL melanoma = system: M19-MEL melanoma
SNB-78 CNS = system: SNB-78 CNS
DMS 114 small cell lung = system: DMS 114 small cell lung
HOP-18 NSCLC = system: HOP-18 NSCLC
XF 498 CNS = system: XF 498 CNS

Row | SMILES | TGI (A498 renal) | TGI (BT-549 breast) | TGI (SK-MEL-2 melanoma) | TGI (SN12C renal) | TGI (SNB-19 CNS) | TGI (DLD-1 colon) | TGI (DMS 273 small cell lung) | TGI (KM20L2 colon) | TGI (LXFL 529 NSCLC) | TGI (M19-MEL melanoma) | TGI (SNB-78 CNS) | TGI (DMS 114 small cell lung) | TGI (HOP-18 NSCLC) | TGI (XF 498 CNS)
1 | O=C1CSC2(CC(/C=C/c3cccc([N+](=O)[O-])c3)=NN2c2cccc(S(=O)(=O)O)c2)N1c1nc2ccccc2s1 (centres undefined) | 52.5 µM | 32.7 µM | 47.9 µM | 49.9 µM | 43.6 µM |  |  |  |  |  |  |  |  | 
2 | Cc1ccc2nc(N/N=C/c3sccc3C)cc(C)c2c1 | > 100 µM | > 100 µM | > 100 µM | > 100 µM | > 100 µM |  |  |  |  |  |  |  |  | 
3 | O=C(N/N=C/c1ccc([N+](=O)[O-])cc1)Nc1ccc(C(=O)O)cc1 | 65.1 µM | > 100 µM | 83.9 µM | > 100 µM | > 100 µM |  |  |  |  |  |  |  |  | 
4 | O=C1Cc2c([nH]c3ccc(Br)cc23)-c2cc(O)c(O)cc2N1 | > 100 µM | > 100 µM | > 100 µM | > 100 µM | > 100 µM |  |  |  |  |  |  |  |  | 
5 | c1ccc2oc(-c3ccc(-c4nc5ccccc5o4)c4c3CC4)nc2c1 | > 100 µM | > 100 µM | > 100 µM | > 100 µM | > 100 µM |  |  |  |  |  |  |  |  | 
6 | CC1(C)CC[C@]2(C)CC[C@]3(C)C(=CC[C@@H]4[C@@]5(C)CCC(=O)C(C)(C)[C@@H]5[C@H](O)C[C@]43C)[C@@H]2C1 | 31 µM | 35.4 µM | 30 µM | 29.5 µM | 30.6 µM |  |  |  |  |  |  |  |  | 
7 | O=C1C(Cl)C2(CC(/C=C/c3ccccc3)=NN2c2cccc(S(=O)(=O)O)c2)N1c1nc2ccccc2s1 (centres undefined) | 38.8 µM | 28.5 µM | 40.9 µM | 36.1 µM | > 100 µM |  |  |  |  |  |  |  |  | 
8 | c1cnc2c(c1)ccc1cccnc12 | > 100 µM | > 100 µM | > 100 µM | > 28.2 µM | > 100 µM |  |  |  |  |  |  |  |  | 
9 | Fc1ccc(N2C(=S)SC(=Nc3ccccc3)C2=Nc2ccccc2)cc1 | > 100 µM | > 100 µM | > 100 µM | > 100 µM | > 100 µM |  |  |  |  |  |  |  |  | 
10 | CN(C)C(=NCc1ccccc1)NC#N |  |  | > 100 µM | > 100 µM | > 100 µM | > 100 µM | > 100 µM | > 100 µM | > 100 µM | > 100 µM | > 100 µM |  |  | 
11 | O=C(c1ccccc1)N(C(=O)c1ccccc1)c1nc(SCc2ccccc2)ns1 | 73.9 µM | 70.5 µM | 49.5 µM | 64.7 µM | > 100 µM |  |  |  |  |  |  |  |  | 
12 | CC1(C)OC(=S)N(c2ccccc2)C12C=Cc1ccccc1O2 (centres undefined) | > 100 µM | > 100 µM | > 100 µM | > 100 µM | > 100 µM |  |  |  |  |  |  |  |  | 
13 | CCOC(=O)/C=C/CCO[Si](C)(C)C(C)(C)C | > 100 µM | > 100 µM | > 100 µM | > 100 µM | > 100 µM |  |  |  |  |  |  |  |  | 
14 | Cc1cc(N(CCC#N)CCC#N)ccc1/C(N=Nc1cccc(Cl)c1)=N/NC(=O)c1cc(Cl)ccc1O | 53.1 µM | 62 µM | 36.1 µM | 61.3 µM | > 100 µM |  |  |  |  |  |  |  |  | 
15 | O=C(c1cccs1)N(C(=S)OCCOc1ccccc1)c1ccccc1 | 50.5 µM | 65.1 µM | 55.6 µM | 55.5 µM | > 100 µM |  |  |  |  |  |  |  |  | 
16 | C/C(=C\CBr)CCC(Br)C(C)(C)Cl (centres undefined) |  |  | > 100 µM | > 100 µM |  | > 100 µM | > 100 µM |  | > 100 µM | > 100 µM | > 100 µM | > 100 µM | > 100 µM | 
17 | CC(C)(C)C1=CC(C)(n2[nH]c(=O)n(-c3ccccc3)c2=O)C=C(C(C)(C)C)C1=O | > 100 µM | > 100 µM | > 100 µM | > 100 µM | > 100 µM |  |  |  |  |  |  |  |  | 
18 | Clc1cc(Cl)cc(N=C/C=C/Nc2cc(Cl)cc(Cl)c2)c1 | 57.3 µM | > 100 µM | 40.7 µM | 38.8 µM | 53.8 µM |  |  |  |  |  |  |  |  | 
19 | CCC1OC2C(CC=C(C)C)=C3OC(C)(O)C(C)(CC)C(OC(C)=O)C3=C3OC(=O)C=C1C32 (centres undefined) | > 100 µM | 42.9 µM | 41.8 µM | 41.2 µM | 63.2 µM |  |  |  |  |  |  |  |  | 
20 | CCOC(=O)C(C(=O)OCC)=C1NC2(c3ccccc3Nc3ccccc32)C(C#N)S1 (centres undefined) | 29.2 µM | 27.5 µM | 25.5 µM | 18.9 µM | 35.1 µM |  |  |  |  |  |  |  |  | 
21 | CC(=O)Oc1ccc(/C=C/C(=O)OCCCOC(=O)/C=C/c2ccc(OC(C)=O)c(OC(C)=O)c2)cc1OC(C)=O | > 100 µM | > 100 µM | > 100 µM | > 100 µM | > 100 µM |  |  |  |  |  |  |  |  | 
22 | CCOC(=O)NNC(=O)NCc1cccc(CNC(=O)NNC(=O)OCC)c1 | > 100 µM | > 100 µM | > 100 µM | > 100 µM | > 100 µM |  |  |  |  |  |  |  |  | 
23 | [O-]c1c2cc(-[n+]3c(-c4ccccc4)cc(-c4ccccc4)cc3-c3ccccc3)cc1COCCOCCOCCOCCOC2 |  |  | 44 µM | > 100 µM | > 100 µM | > 100 µM | > 100 µM | > 100 µM | 55 µM | 87.3 µM |  |  | > 100 µM | 
24 | CCOC(=O)N1N=C(/C(C)=N/OC)C(C)S1=O (centres undefined) | > 100 µM | > 100 µM | > 100 µM | > 100 µM | > 100 µM |  |  |  |  |  |  |  |  | 
25 | C/C=C/C#CC#C/C=C/C=C/C(O)CCO (centres undefined) |  |  | > 23.1 µM | > 23.1 µM | > 23.1 µM | > 23.1 µM | > 23.1 µM | > 23.1 µM | > 23.1 µM | > 23.1 µM | > 23.1 µM | > 23.1 µM | > 23.1 µM | > 23.1 µM
